The values that follow come from patent US20120277161A1, “INHIBITION OF MULTIPLE CELL ACTIVATION PATHWAYS” (INTER-K PTY LIMITED, priority 2009, published 2012).

One experiment has as its target human ERK2 (Homo sapiens, UniProt P28482). The experiment is described as follows: ERK2 kinase activity assay (cell-free). The experiment is classed as biochemical. The protocol:
(§1) In a final reaction volume of 25 μL, human ERK2 (5-10 mU) is incubated with 25 mM Tris pH 7.5, 0.02 mM EGTA, 0.33 mg/mL myelin basic protein, 10 mM MgAcetate and [γ-33P-ATP] (specific activity approx. 500 cpm/pmol, concentration as required). The reaction is initiated by the addition of the MgATP mix. After incubation for 40 minutes at room temperature, the reaction is stopped by the addition of 5 μL of a 3% phosphoric acid solution. 10 μL of the reaction is then spotted onto a P30 filtermat and washed three times for 5 minutes in 75 mM phosphoric acid and once in methanol prior to drying and scintillation counting.

The target in a further experiment is MEK1 (h) (Homo sapiens, UniProt Q02750). The experiment is described as follows: MEK1 kinase activity assay. The experiment is classed as biochemical. The protocol: The reaction is initiated by the addition of the MgATP. After incubation for 40 minutes at room temperature, 5 μL of this incubation mix is used to initiate an ERK2 (m) assay.
A further experiment has as its target PI3K P110δ (Homo sapiens, UniProt O00329). The experiment is described as follows: PI3K HTRF activity assay. The experiment is classed as biochemical. The method, then:
(§2) In a final reaction volume of 20 μL, the test PI3K is incubated in assay buffer containing 10 μM phosphatidylinositol-4,5-bisphosphate and MgATP. The reaction is initiated by the addition of the MgATP mix. After incubation for 30 minutes at room temperature, the reaction is stopped by the addition of 5 μL of stop solution containing EDTA and biotinylated phosphatidylinositol-3,4,5-trisphosphate. Finally, 5 μL of detection buffer is added (containing europium-labelled anti-GST monoclonal antibody, GST-tagged GRP1 PH domain and streptavidin-allophycocyanin). The test plate is then read in time-resolved fluorescence mode and the homogenous time-resolved fluorescence (HTRF) signal is determined according to the formula HTRF=10000×(Em665 nm/Em620 nm).
(In general: Time-resolved FRET reads energy transfer from a long-lived donor to a nearby acceptor.)

The target in the next experiment is PI3K beta (Homo sapiens, UniProt P42338). Kind of experiment: PI3K HTRF activity assay. The experiment is classed as biochemical. The protocol:
as §2

Another experiment addresses c-RAF (h) (Homo sapiens, UniProt P04049). The experiment is described as follows: c-RAF kinase activity assay. The experiment is classed as biochemical. The method, then: as §1, with “c-RAF (h)” for “human ERK2”, “0.66” for “0.33”
For experiment [1], the system named is HT29 human colon cancer cells. The experiment is described as follows: Cell proliferation (MTT) assay, HT29 cells. The experiment is classed as cell-based. As to conditions: MTT, 48 hours. The protocol:
6.1 Cell Proliferation (MTT) Assay Single cell suspensions of viable trypsinised cells were seeded into 96-well tissue culture plates at a density of 2×10^3 cells per well in a volume of 100 μl of a suitable culture media supplemented with heat inactivated foetal calf serum (FCS) (e.g., Dulbecco's Modified Eagles Medium (DMEM), with 10% v/v FCS, 1% L-glutamine, 2% (v/v) Hepes, and antibiotics). A set of triplicate wells was prepared for each concentration of the peptide dendrimer being tested. Additional sample wells containing untreated cells or media alone were set up in each treatment plate and processed in parallel as reference controls. A zero-time plate of untreated cells and media-alone wells was simultaneously prepared and an MTT assay carried out on this plate at the time of addition of the kinase inhibitor (i.e., polypeptide or dendrimer) to treatment plates. All plates were cultured for 24 hours before addition of the test dendrimer.
To prepare the MTT solution 100 mg of MTT (3-(4,5-dimethylthiazolyl-2)-2,5-diphenyltetrazolium bromide) (Cat #. M-128, Sigma, St Louis Mo.), is mixed with 20 ml of PBS at pH 7.4. The resulting solution is filter sterilized (0.2 μM syringe filter) and stored at 4° C. protected from light until use. MTT substrate is cleaved in growing cells to yield a water insoluble salt. After solubilisation of the salt crystals, a coloured product is produced the measurement of which allows quantitation of the proliferative activity of the cultured cells.
Appropriate concentrations of the kinase inhibitor were prepared by dilution of freshly prepared sterile 1 mM stock solutions into cell culture media to give a final well volume of 200 μl containing 10% v/v FCS. The zero-plate was processed by addition of MTT at this time. Cell culture was continued for a further 24 or 48 hours before addition of 20 μl of MTT in PBS (5 mg/ml, 0.2 um filter sterilised). The MTT cell proliferation assay measures cell proliferation rate and, in instances where cell viability is compromised, the assay indicates a comparative reduction in cell viability. After a 3 hour incubation in the presence of MTT (5% CO2 in air at 37° C.), plates were centrifuged at 450 g for 5 minutes, supernatant was removed by gentle suction and precipitated tetrazolium salt resuspended into 150 μl DMSO:glycine (0.1M glycine, 0.1M NaCl pH 10.5) (6:1 v/v) solution. Plates were gently vortexed to complete solubilisation of crystalline material and absorbance was read at 550 nm using a microplate reader. Sample data were processed to determine the comparative growth of treated samples relative to untreated controls.
HT29 cells were cultured for 48 hours in the presence of selected dendrimers and proliferation of the cells was assessed by MTT assay essentially as described in Example 6.1. The results were calculated as percentage proliferation of control cells (not treated with dendrimer).

PI3K beta, sequence (P42338 whole entry, species assumed): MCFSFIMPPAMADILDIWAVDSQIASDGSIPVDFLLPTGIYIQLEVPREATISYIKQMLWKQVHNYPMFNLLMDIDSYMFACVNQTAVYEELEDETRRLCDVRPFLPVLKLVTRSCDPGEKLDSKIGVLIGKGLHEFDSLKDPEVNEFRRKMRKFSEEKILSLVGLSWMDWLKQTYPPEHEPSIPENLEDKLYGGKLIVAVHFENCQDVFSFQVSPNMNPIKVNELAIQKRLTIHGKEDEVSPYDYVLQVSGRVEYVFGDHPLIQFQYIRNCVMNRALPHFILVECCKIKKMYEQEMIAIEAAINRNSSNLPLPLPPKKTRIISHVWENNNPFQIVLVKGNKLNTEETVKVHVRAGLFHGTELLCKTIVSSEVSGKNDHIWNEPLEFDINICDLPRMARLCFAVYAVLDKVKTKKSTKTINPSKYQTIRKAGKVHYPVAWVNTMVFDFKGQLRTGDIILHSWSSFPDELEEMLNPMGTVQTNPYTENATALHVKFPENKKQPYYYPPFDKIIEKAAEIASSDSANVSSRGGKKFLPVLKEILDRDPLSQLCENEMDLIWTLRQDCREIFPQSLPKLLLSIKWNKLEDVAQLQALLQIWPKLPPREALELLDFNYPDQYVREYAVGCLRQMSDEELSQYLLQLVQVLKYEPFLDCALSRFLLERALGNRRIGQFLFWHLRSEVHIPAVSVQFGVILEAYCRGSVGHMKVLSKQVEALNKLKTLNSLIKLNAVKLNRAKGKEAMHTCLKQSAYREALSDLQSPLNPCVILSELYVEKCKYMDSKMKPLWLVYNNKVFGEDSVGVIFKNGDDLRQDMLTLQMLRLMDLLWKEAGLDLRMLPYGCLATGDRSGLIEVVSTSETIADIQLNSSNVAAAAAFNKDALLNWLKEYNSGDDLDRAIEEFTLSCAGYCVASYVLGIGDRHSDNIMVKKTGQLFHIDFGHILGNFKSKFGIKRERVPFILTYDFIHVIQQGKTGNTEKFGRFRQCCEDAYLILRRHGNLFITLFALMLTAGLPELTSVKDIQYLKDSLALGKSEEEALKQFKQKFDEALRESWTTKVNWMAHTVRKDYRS
PI3K beta, sequence (P27986 whole entry partner, species assumed): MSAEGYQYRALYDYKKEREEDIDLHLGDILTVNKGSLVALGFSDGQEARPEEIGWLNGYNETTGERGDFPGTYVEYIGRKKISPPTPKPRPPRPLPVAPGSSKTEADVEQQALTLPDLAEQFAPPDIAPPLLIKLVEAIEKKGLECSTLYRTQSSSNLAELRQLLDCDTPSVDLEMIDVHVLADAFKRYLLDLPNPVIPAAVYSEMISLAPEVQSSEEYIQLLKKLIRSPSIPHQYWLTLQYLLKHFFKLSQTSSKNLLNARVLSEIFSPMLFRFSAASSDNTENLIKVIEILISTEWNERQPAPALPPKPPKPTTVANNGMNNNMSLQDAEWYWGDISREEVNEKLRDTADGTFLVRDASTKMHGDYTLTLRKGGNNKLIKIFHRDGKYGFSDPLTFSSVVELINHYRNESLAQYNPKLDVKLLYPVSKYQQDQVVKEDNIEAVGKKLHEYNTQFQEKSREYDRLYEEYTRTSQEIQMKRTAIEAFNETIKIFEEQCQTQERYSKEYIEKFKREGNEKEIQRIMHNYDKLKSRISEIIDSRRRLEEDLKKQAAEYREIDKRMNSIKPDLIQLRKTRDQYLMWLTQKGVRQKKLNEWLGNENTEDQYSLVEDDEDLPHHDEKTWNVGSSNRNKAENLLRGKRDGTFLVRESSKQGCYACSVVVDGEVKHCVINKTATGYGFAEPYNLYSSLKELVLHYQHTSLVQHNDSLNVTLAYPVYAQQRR
PI3K P110δ, sequence (O00329 whole entry, the tested form may be a part): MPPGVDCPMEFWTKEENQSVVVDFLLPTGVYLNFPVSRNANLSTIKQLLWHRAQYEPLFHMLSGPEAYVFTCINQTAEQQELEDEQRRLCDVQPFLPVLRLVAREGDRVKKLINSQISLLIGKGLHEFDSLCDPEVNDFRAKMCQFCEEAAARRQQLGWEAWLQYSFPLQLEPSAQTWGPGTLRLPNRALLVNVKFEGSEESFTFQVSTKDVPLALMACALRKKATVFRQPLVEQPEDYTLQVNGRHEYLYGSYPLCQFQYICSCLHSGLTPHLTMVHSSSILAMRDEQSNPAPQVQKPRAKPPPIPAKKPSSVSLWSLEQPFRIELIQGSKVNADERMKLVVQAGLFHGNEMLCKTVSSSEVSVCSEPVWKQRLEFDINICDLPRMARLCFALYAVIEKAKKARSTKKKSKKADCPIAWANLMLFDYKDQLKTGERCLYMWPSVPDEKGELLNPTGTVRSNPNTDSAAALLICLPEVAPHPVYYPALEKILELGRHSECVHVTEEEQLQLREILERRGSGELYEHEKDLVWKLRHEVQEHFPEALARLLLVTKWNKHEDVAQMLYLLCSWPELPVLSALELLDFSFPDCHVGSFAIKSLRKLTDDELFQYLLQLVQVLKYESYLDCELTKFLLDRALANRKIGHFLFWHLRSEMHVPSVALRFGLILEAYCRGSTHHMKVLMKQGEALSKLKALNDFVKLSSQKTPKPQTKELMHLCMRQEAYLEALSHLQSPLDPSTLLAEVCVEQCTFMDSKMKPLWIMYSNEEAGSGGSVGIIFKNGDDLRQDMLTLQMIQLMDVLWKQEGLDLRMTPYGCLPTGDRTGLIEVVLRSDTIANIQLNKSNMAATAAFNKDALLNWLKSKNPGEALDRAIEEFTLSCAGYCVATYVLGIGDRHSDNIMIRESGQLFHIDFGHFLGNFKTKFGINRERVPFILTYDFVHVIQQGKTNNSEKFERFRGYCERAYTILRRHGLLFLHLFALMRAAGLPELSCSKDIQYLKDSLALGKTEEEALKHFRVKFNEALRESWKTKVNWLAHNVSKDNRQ
PI3K P110δ, sequence (P27986 whole entry partner, the tested form may be a part): as the sequence (P27986 whole entry partner, species assumed) above
human ERK2, sequence (P28482 whole entry): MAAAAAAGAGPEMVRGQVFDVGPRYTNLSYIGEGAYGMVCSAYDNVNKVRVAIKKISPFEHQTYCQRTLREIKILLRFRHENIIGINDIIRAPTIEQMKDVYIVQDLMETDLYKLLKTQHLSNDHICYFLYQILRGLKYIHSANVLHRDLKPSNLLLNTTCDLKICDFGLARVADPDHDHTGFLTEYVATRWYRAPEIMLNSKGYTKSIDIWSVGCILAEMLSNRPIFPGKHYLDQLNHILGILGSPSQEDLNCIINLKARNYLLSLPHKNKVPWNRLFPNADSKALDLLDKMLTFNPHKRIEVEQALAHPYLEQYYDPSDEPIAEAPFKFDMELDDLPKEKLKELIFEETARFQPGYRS

As for “Dend 10-10(4) whose RSKAKNPLYR peptides are entirely D-amino acids and pegylated with two ethylene glycol units [Dend 10-10(4)DP]”, on human ERK2 (20 μM, relative to control), the “% Kinase inhibition ERK2” value is recorded as 37%. Further, the “% Kinase inhibition MEK1” value at MEK1 (h) (20 μM, relative to control) is listed as 90%. Moreover, the “Percentage (%) kinase inhibition MEK1” value was determined as 76% at MEK1 (h) (dendrimer conc. 1 μM), 88% at MEK1 (h) (dendrimer conc. 2 μM), 2% at MEK1 (h) (dendrimer conc. 250 nm) and 34% on MEK1 (h) (dendrimer conc. 500 nm). The “Percentage (%) kinase inhibition PI3K P110δ” value at PI3K P110δ (dendrimer conc. 1 μM) was 39%; on PI3K P110δ (dendrimer conc. 2 μM) it was 56%; on PI3K P110δ (dendrimer conc. 250 nm) it was 9%; on PI3K P110δ (dendrimer conc. 500 nm) it was 25%. Also, at PI3K beta (20 μM final concentration), the “PI3K beta % inhibition” value is reported as “approx. 92%”. The “Percentage (%) kinase inhibition PI3K P110β” value on PI3K beta (dendrimer conc. 1 μM) was determined as 39%; on PI3K beta (dendrimer conc. 2 μM), 53%; on PI3K beta (dendrimer conc. 250 nm) it was 28%; at PI3K beta (dendrimer conc. 500 nm), 34%. For the same molecule, on c-RAF (h) (20 μM, relative to control), the “% Kinase inhibition c-RAF” value amounted to 93%. The “Percentage (%) kinase inhibition c-RAF” value is 79% at c-RAF (h) (dendrimer conc. 1 μM), 81% at c-RAF (h) (dendrimer conc. 2 μM), 64% at c-RAF (h) (dendrimer conc. 250 nm) and 74% at c-RAF (h) (dendrimer conc. 500 nm). The “inhibition of proliferation of HT29 cells” value in experiment [1] is “substantially greater inhibition of proliferation”.

In general, inhibition refers to the relative decrease from the control value, in per cent. With `CC(C)C[C@H](NC(=O)[C@@H]1CCCN1C(=O)[C@H](CC(N)=O)NC(=O)[C@H](CCCCN)NC(=O)[C@H](C)NC(=O)[C@H](CCCCN)NC(=O)[C@H](CO)NC(=O)[C@@H](N)CCCNC(=N)N)C(=O)N[C@@H](Cc1ccc(O)cc1)C(=O)N[C@@H](CCCNC(=N)N)C(=O)NCCCC[C@H](NC(=O)[C@H](CCCCNC(=O)[C@H](CCCCNC(=O)[C@H](CCCNC(=N)N)NC(=O)[C@H](Cc1ccc(O)cc1)NC(=O)[C@H](CC(C)C)NC(=O)[C@@H]1CCCN1C(=O)[C@H](CC(N)=O)NC(=O)[C@H](CCCCN)NC(=O)[C@H](C)NC(=O)[C@H](CCCCN)NC(=O)[C@H](CO)NC(=O)[C@@H](N)CCCNC(=N)N)NC(=O)[C@H](CCCNC(=N)N)NC(=O)[C@H](Cc1ccc(O)cc1)NC(=O)[C@H](CC(C)C)NC(=O)[C@@H]1CCCN1C(=O)[C@H](CC(N)=O)NC(=O)[C@H](CCCCN)NC(=O)[C@H](C)NC(=O)[C@H](CCCCN)NC(=O)[C@H](CO)NC(=O)[C@@H](N)CCCNC(=N)N)NC(=O)[C@H](CCCCNC(=O)[C@H](CCCNC(=N)N)NC(=O)[C@H](Cc1ccc(O)cc1)NC(=O)[C@H](CC(C)C)NC(=O)[C@@H]1CCCN1C(=O)[C@H](CC(N)=O)NC(=O)[C@H](CCCCN)NC(=O)[C@H](C)NC(=O)[C@H](CCCCN)NC(=O)[C@H](CO)NC(=O)[C@@H](N)CCCNC(=N)N)NC(=O)[C@H](CCCNC(=N)N)NC(=O)[C@H](Cc1ccc(O)cc1)NC(=O)[C@H](CC(C)C)NC(=O)[C@@H]1CCCN1C(=O)[C@H](CC(N)=O)NC(=O)[C@H](CCCCN)NC(=O)[C@H](C)NC(=O)[C@H](CCCCN)NC(=O)[C@H](CO)NC(=O)[C@@H](N)CCCNC(=N)N)C(=O)NCCCC[C@H](NC(=O)[C@H](CCCCNC(=O)[C@H](CCCNC(=N)N)NC(=O)[C@H](Cc1ccc(O)cc1)NC(=O)[C@H](CC(C)C)NC(=O)[C@@H]1CCCN1C(=O)[C@H](CC(N)=O)NC(=O)[C@H](CCCCN)NC(=O)[C@H](C)NC(=O)[C@H](CCCCN)NC(=O)[C@H](CO)NC(=O)[C@@H](N)CCCNC(=N)N)NC(=O)[C@H](CCCCNC(=O)[C@H](CCCCNC(=O)[C@H](CCCNC(=N)N)NC(=O)[C@H](Cc1ccc(O)cc1)NC(=O)[C@H](CC(C)C)NC(=O)[C@@H]1CCCN1C(=O)[C@H](CC(N)=O)NC(=O)[C@H](CCCCN)NC(=O)[C@H](C)NC(=O)[C@H](CCCCN)NC(=O)[C@H](CO)NC(=O)[C@@H](N)CCCNC(=N)N)NC(=O)[C@H](CCCNC(=N)N)NC(=O)[C@H](Cc1ccc(O)cc1)NC(=O)[C@H](CC(C)C)NC(=O)[C@@H]1CCCN1C(=O)[C@H](CC(N)=O)NC(=O)[C@H](CCCCN)NC(=O)[C@H](C)NC(=O)[C@H](CCCCN)NC(=O)[C@H](CO)NC(=O)[C@@H](N)CCCNC(=N)N)NC(=O)[C@H](CCCCNC(=O)[C@H](CCCNC(=N)N)NC(=O)[C@H](Cc1ccc(O)cc1)NC(=O)[C@H](CC(C)C)NC(=O)[C@@H]1CCCN1C(=O)[C@H](CC(N)=O)NC(=O)[C@H](CCCCN)NC(=O)[C@H](C)NC(=O)[C@H](CCCCN)NC(=O)[C@H](CO)NC(=O)[C@@H](N)CCCNC(=N)N)NC(=O)[C@H](CCCNC(=N)N)NC(=O)[C@H](Cc1ccc(O)cc1)NC(=O)[C@H](CC(C)C)NC(=O)[C@@H]1CCCN1C(=O)[C@H](CC(N)=O)NC(=O)[C@H](CCCCN)NC(=O)[C@H](C)NC(=O)[C@H](CCCCN)NC(=O)[C@H](CO)NC(=O)[C@@H](N)CCCNC(=N)N)C(=O)NCCC(N)=O` [Dend 10-10(4)], the remaining activity at 50 µM at human ERK2 (final concentration 50 μM, read-out: ERK2 % activity relative to control) stood at 47%. Besides, the inhibition at 1 µM is 83% on MEK1 (h) (dendrimer conc. 1 μM, read-out: Percentage (%) kinase inhibition MEK1); 56% on PI3K P110δ (dendrimer conc. 1 μM, read-out: Percentage (%) kinase inhibition PI3K P110δ); 61% at PI3K beta (dendrimer conc. 1 μM, read-out: Percentage (%) kinase inhibition PI3K P110β); 71% on c-RAF (h) (dendrimer conc. 1 μM, read-out: Percentage (%) kinase inhibition c-RAF). Further, the “PIK3 beta % activity relative to control” value at PI3K beta (final concentration 50 μM) stood at 83%. The “dendrimer concentration required for total kill, HT29 cells” value in experiment [1] stood at 10 µM. Besides, the “inhibition of proliferation of HT29 cells” value in experiment [1] is reported as “inhibited”.
